Patent US8071325B2, “Flow cytometric method and kit for metal-induced sensitivity” (The Trustees of the University of Pennsylvania, priority 2004, dated 2011)
Marks after values point to notes of the source that are not given here.

Columns and labels:
[1] = tested on: CFSE-labeled peripheral blood lymphocytes (CD3+, CD3+/CD4+, CD3+/CD8+ T cells); test: CFSE dye dilution proliferation measured by flow cytometry; assay type: cell-based, human; conditions: for proliferative ratio (PR, %M2/%M1): mean +/- SEM
Procedure: Cell surface marker staining was performed. The following monoclonal antibodies were used: Phycoerythin (PE) conjugated anti-human CD4, Tricolor-conjugated anti-human CD3, Allophycocyanin (APC) conjugated anti-human CD8 (Caltag, Burlingame, Calif.). The vital dye TO-PRO®-3 (Molecular Probes Inc., Eugene, Oreg.) was used to discriminate live and dead cells.
The CFSE labeling method was adapted from a previously described protocol. Aliquots of the same PBL sample used in the BeLPT assay were split and washed three times in 10 ml of phosphate buffered saline (dPBS, Gibco BRL, Grand Island, N.Y.) at room temperature. The cells were adjusted to 10^6 cells per milliliter, and CFSE (Molecular Probes, Eugene, Oreg.) was added at a final concentration of 1 μM/ml. The cells were vortexed for ten seconds and then incubated for ten minutes in the dark at room temperature with gentle shaking. After incubation an equal volume of sterile, heat inactivated human serum (Gibco BRL, Grand Island, N.Y.) was added to the sample for one minute to quench the reaction. The cells were washed twice, adjusted to the concentration 2×10^6/ml in 10% human heat inactivated serum.
Following CFSE (carboxy fluorescein diacetate succinimide ester) labeling, the cells were cultured in 24-well plates at 2×10^6 per well in the presence of either media alone, PHA, Candida, or either 10 or 100 μM of beryllium sulfate. The cells were incubated for seven days at 37° C. and 5% CO2. Preliminary experiments titrated the optimal dose of CFSE and time of incubation. Surface labeling was performed at the time of harvest using CD3TC, CD4PE and CD8APC in some experiments. TO-PRO®-3 was added to define live cells in some experiments.
All data were acquired on a four-color, dual laser FACSCalibur (Becton Dickinson, San Jose, Calif.). CFSE was measured in Fl-1 channel (530/30-nm bandpass filter), CD4PE in the Fl-2 channel (585/42-nm bandpass filter), CD3TC in the Fl-3-channel (670-nm longpass filter) using excitation from the 488 nm blue laser and TO-PRO®-3 or CD8APC in Fl-4 channel (661/16 bandpass filter) by excitation using the 635 nm red diode laser. Compensation for CFSE in multiparameter flow cytometry is dose dependent and determined empirically.
The basic analysis gating strategy was as follows (FIG. 1): for analysis of CD3+ T cells alone, an initial region was defined as lymphocytes by light scatter and a broad region was set to include medium to high forward/low side scatter events after stimulation with PHA (FIG. 1A, R1) to include all proliferating lymphocytes. For CD3+ T cells, the R1 data were plotted in a contour plot of CD3TC versus TO-PRO®-3 to identify the live CD3+ T Cells (FIG. 1B, R2). The R2 population was expressed on a contour plot of CD3+CD4+ where a double positive region was defined as R3 (FIG. 1C). For final analyses, each population was then analyzed for CFSE (FL1) fluorescence, representing proliferation, on a single parameter histogram using a logical gate of either R1*R2 for CD3+ cells only and R1*R2*R3 for CD3+4+ cells. In experiments where only data from CD3+ or CD3+4+ cells were collected, a live gate on TO-PRO®-3 negative (“viable”) cells was also used in acquisition. When specific CD4+ and CD8+ T cell determination was performed, the viability dye was eliminated. The strategy was similar to that above with light scatter gating (R1) followed by identification of the CD3+ events using a SSC vs CD3+ plot (R2) and CD4+ (R3) and CD8+(R4) identification followed by single parameter histogram analysis of the CFSE fluorescence (for CD4+, R1*R2*R3; for CD8, R1*R2*R4*).
CFSE flow cytometric data files were analyzed using CellQuest™ acquisition/analysis software (Becton Dickinson, San Jose, Calif.). Fifty thousand (50,000) events were collected. The data are reported as the proliferative ratio (PR) defined as the ratio of the percentage of divided cells to undivided cells on day 7 (%M2/%M1). […]

[2] = tested on: Peripheral blood lymphocytes (PBLs); test: Blood BeLPT (3H-thymidine incorporation assay); assay type: cell-based, human; conditions: for stimulation index (SI): mean ± SEM
Procedure: Beryllium workers (present and former), referred to the Hospital of the University of Pennsylvania (HUP) for possible CBD, were tested. […] CBD was diagnosed when there was evidence of BH with granulomas on biopsy and/or radiologic changes consistent with a granulomatous process. Normal unexposed volunteers were used as controls.
Peripheral blood lymphocytes (PBLs) were isolated from heparinized blood under sterile conditions using density centrifugation with lymphocyte separation medium (ICN Biomedicals Inc., Aurora, Ohio). Blood BeLPT was performed. The cells were cultured at a concentration of 2.5×10^5 cells/well. Stimulants included 500 μg/ml of phytohemagglutinin (PHA) (L-9132; Sigma Chemical Co., St Louis, Mo.), 20 μl/ml of Candida(M15; Greer Labs, Lenoir, N.C.) and 100 μM or 10 μM of beryllium sulfate (Blush Wellman, Cleveland, OH). After culturing the cells in an incubator (5% CO2 and 37° C.) for 3, 5 or 7 days, the cells were pulsed with ^3H thymidine (DuPont NEN, Boston, Mass.) overnight (ice. 16-24 hours) and then harvested on a filter fiber (Wallac, Turku, Finland). The uptake of ^3H thymidine was measured as counts per minute (CPM) using a Wallac 1205 beta plate liquid scintillation system (Wallac Inc., Gaithersburg, Md.). Results were expressed as a stimulation index (SI=mean CPM of test wells/mean CPM of control wells). A positive response was defined as a SI>3.0 for blood A positive test required that a positive response be recorded on two different days or at two different concentrations of beryllium.
All values are presented as ± SEM (standard error of the mean). Data are only presented if a minimum of 1,000 cells were detected within a population. For the tritiated thymidine test, the results were expressed as a stimulation index and group differences (between controls and beryllium-sensitive populations) were evaluated using the Student's T test. For the CFSE tests, since the results were expressed as PR, the Mann-Whitney version of the […] was used to determine if there was a difference between the normal donors and the beryllium exposed patients. Statistical significance was defined as p<0.05.

Question: Which “CFSE-determined response, sensitized versus controls (in words)” value ([1]; CD3+ and CD3+/CD4+ T cells from beryllium-sensitized subjects, both doses) does the source give for `O=S(=O)([O-])[O-].[Be+2]` [Be, beryllium sulfate] here?
Answer: significant difference

Question: And the “CFSE-determined response (in words)” value ([1]; CD3+ or CD3+/CD4+ high cells from controls, 10 or 100 μM)?
Answer: minimal response

Question: And the “proliferative ratio (PR, %M2/%M1)” value ([1]; CD3+/CD4+, Be 10 μM, day 7, beryllium-exposed sensitized (n = 24))?
Answer: 0.105 ± 0.038

Question: What about the “proliferative ratio (PR, %M2/%M1)” value ([1]; CD3+/CD4+, Be 10 μM, day 7, normal controls (n = 9)) of the same compound?
Answer: 0.027 ± 0.005

Question: What about the “proliferative ratio (PR, %M2/%M1)” value ([1]; CD3+/CD4+, Be 100 μM, day 7, beryllium-exposed sensitized (n = 24)) of the same compound?
Answer: 0.089 ± 0.027

Question: What about the “proliferative ratio (PR, %M2/%M1)” value ([1]; CD3+/CD4+, Be 100 μM, day 7, normal controls (n = 9)) of the same compound?
Answer: 0.029 ± 0.010

Question: And the “proliferative ratio (PR, %M2/%M1)” value ([1]; CD3+, Be 10 μM, day 7, beryllium-exposed sensitized (n = 24))?
Answer: 0.115 ± 0.046

Question: What about the “proliferative ratio (PR, %M2/%M1)” value ([1]; CD3+, Be 10 μM, day 7, normal controls (n = 9)) of the same compound?
Answer: 0.027 ± 0.005

Question: And the “proliferative ratio (PR, %M2/%M1)” value ([1]; CD3+, Be 100 μM, day 7, beryllium-exposed sensitized (n = 24))?
Answer: 0.099 ± 0.026

Question: What about the “proliferative ratio (PR, %M2/%M1)” value ([1]; CD3+, Be 100 μM, day 7, normal controls (n = 9)) of the same compound?
Answer: 0.030 ± 0.008

Question: What about the “CFSE-determined response, sensitized versus normal donors (in words)” value ([1]; CD8+ T cells, normal donors or beryllium-sensitized individuals) of the same compound?
Answer: no differences were noted

Question: What about the “proliferative ratio (PR, %M2/%M1)” value ([1]; Table 3 series (CD8 APC staining), CD3+, Be 10 μM, beryllium-exposed sensitized (n = 14)) of the same compound?
Answer: 0.156 +/− 0.114‡

Question: And the “proliferative ratio (PR, %M2/%M1)” value ([1]; Table 3 series (CD8 APC staining), CD3+, Be 10 μM, normal controls (n = 6))?
Answer: 0.012 +/− 0.002^†

Question: What about the “proliferative ratio (PR, %M2/%M1)” value ([1]; Table 3 series (CD8 APC staining), CD3+, Be 100 μM, beryllium-exposed sensitized (n = 14)) of the same compound?
Answer: 0.188 +/− 0.137‡

Question: And the “proliferative ratio (PR, %M2/%M1)” value ([1]; Table 3 series (CD8 APC staining), CD3+, Be 100 μM, normal controls (n = 6))?
Answer: 0.013 +/− 0.002

Question: And the “proliferative ratio (PR, %M2/%M1)” value ([1]; Table 3 series, CD4+ (CD3+/CD4+), Be 10 μM, beryllium-exposed sensitized (n = 14))?
Answer: 0.164 +/− 0.112‡

Question: What about the “proliferative ratio (PR, %M2/%M1)” value ([1]; Table 3 series, CD4+ (CD3+/CD4+), Be 10 μM, normal controls (n = 6)) of the same compound?
Answer: 0.015 +/− 0.003

Question: And the “proliferative ratio (PR, %M2/%M1)” value ([1]; Table 3 series, CD4+ (CD3+/CD4+), Be 100 μM, beryllium-exposed sensitized (n = 14))?
Answer: 0.210 +/− 0.114‡

Question: What about the “proliferative ratio (PR, %M2/%M1)” value ([1]; Table 3 series, CD4+ (CD3+/CD4+), Be 100 μM, normal controls (n = 6)) of the same compound?
Answer: 0.015 +/− 0.002

Question: And the “proliferative ratio (PR, %M2/%M1)” value ([1]; Table 3 series, CD8+ (CD3+/CD8+), Be 10 μM, beryllium-exposed sensitized (n = 11))?
Answer: 0.016 +/− 0.003

Question: What about the “proliferative ratio (PR, %M2/%M1)” value ([1]; Table 3 series, CD8+ (CD3+/CD8+), Be 10 μM, normal controls (n = 4)) of the same compound?
Answer: 0.013 +/− 0.003

Question: What about the “proliferative ratio (PR, %M2/%M1)” value ([1]; Table 3 series, CD8+ (CD3+/CD8+), Be 100 μM, beryllium-exposed sensitized (n = 11)) of the same compound?
Answer: 0.019 +/− 0.002

Question: And the “proliferative ratio (PR, %M2/%M1)” value ([1]; Table 3 series, CD8+ (CD3+/CD8+), Be 100 μM, normal controls (n = 4))?
Answer: 0.011 +/− 0.004

Question: What about the “CFSE-determined response (in words)” value ([1]; beryllium-sensitive population, CD3+ population, 10 μM, p<0.05) of the same compound?
Answer: significant positive response

Question: And the “CFSE-determined response (in words)” value ([1]; beryllium-sensitive population, CD3+/CD4+ population, 10 μM and 100 μM, p<0.05)?
Answer: significant positive response

Question: What about the “stimulation index (SI)” value ([2]; Day 5, Be 10 μM, beryllium-exposed sensitized (n = 24)) of the same compound?
Answer: 12.1 ± 3.96

Question: And the “stimulation index (SI)” value ([2]; Day 5, Be 10 μM, normal controls (n = 9))?
Answer: 0.72 ± 0.08

Question: What about the “stimulation index (SI)” value ([2]; Day 5, Be 100 μM, beryllium-exposed sensitized (n = 24)) of the same compound?
Answer: 12.8 ± 4.93

Question: And the “stimulation index (SI)” value ([2]; Day 5, Be 100 μM, normal controls (n = 9))?
Answer: 0.74 ± 0.09

Question: And the “stimulation index (SI)” value ([2]; Day 7, Be 10 μM, beryllium-exposed sensitized (n = 24))?
Answer: 12.5 ± 4.43

Question: And the “stimulation index (SI)” value ([2]; Day 7, Be 10 μM, normal controls (n = 9))?
Answer: 0.44 ± 0.08

Question: What about the “stimulation index (SI)” value ([2]; Day 7, Be 100 μM, beryllium-exposed sensitized (n = 24)) of the same compound?
Answer: 11.5 ± 4.86

Question: What about the “stimulation index (SI)” value ([2]; Day 7, Be 100 μM, normal controls (n = 9)) of the same compound?
Answer: 0.52 ± 0.12

Question: And the “proliferative response by thymidine incorporation (in words)” value ([2]; beryllium-sensitized population, p<0.05)?
Answer: positive responses were noted

Question: And the “proliferative response by thymidine incorporation (in words)” value ([2]; control group)?
Answer: positive responses to beryllium were not noted

Question: Which results are given for phytohemagglutinin [PHA]?
Answer: CFSE-determined response (in words) ([1]; CD3+ and CD3+CD4+ cells from both the control and the beryllium-sensitive populations): positive responses; CFSE-determined response (in words) ([1]; CD3+, CD3+/CD4+ and CD3+/CD8+ T cells from controls (n=6) and beryllium-sensitized (n=14) populations): responded; proliferative ratio (PR, %M2/%M1) ([1]; CD3+/CD4+, PHA, day 7, beryllium-exposed sensitized (n = 24)): 15.756 ± 5.094; proliferative ratio (PR, %M2/%M1) ([1]; CD3+/CD4+, PHA, day 7, normal controls (n = 9)): 10.064 ± 2.753; proliferative ratio (PR, %M2/%M1) ([1]; CD3+, PHA, day 7, beryllium-exposed sensitized (n = 24)): 10.358 ± 4.730; proliferative ratio (PR, %M2/%M1) ([1]; CD3+, PHA, day 7, normal controls (n = 9)): 9.853 ± 2.908; stimulation index (SI) ([2]; Day 3, PHA 500 μg/ml, beryllium-exposed sensitized (n = 24)): 178 ± 23.2; stimulation index (SI) ([2]; Day 3, PHA 500 μg/ml, normal controls (n = 9)): 137 ± 38.9; proliferative response by thymidine incorporation (in words) ([2]; control and beryllium-sensitized populations, PHA on day 3, Candida on day 5 and on day 7): Positive responses
